The CheMixHub viscosity set

Assay: xn = mol fraction of the nth substance listed
Details: 101.33 kPa

CCOCCOCC + COCCOCCO
viscosity [mPa·s]
Details	298.15 K	308.15 K
x1 = 0.0146	3.47	2.55
x2 = 0.0162	0.621	0.538
x2 = 0.0416	0.646	0.559
x2 = 0.0613	0.664	0.574
x2 = 0.0967	0.703	0.6
x2 = 0.1691	0.779	0.666
x2 = 0.2291	0.85	0.718
x2 = 0.2741	0.916	0.765
x2 = 0.3082	0.964	0.809
x2 = 0.344	1.014	0.849
x2 = 0.4006	1.115	0.929
x2 = 0.4593	1.232	1.017
x2 = 0.5082	1.346	1.097
x2 = 0.5635	1.492	1.203
x2 = 0.6145	1.65	1.306
x2 = 0.6552	1.793	1.423
x2 = 0.6969	1.949	1.503
x2 = 0.7526	2.186	1.654
x2 = 0.8075	2.441	1.823
x2 = 0.8567	2.699	1.995
x2 = 0.9074	2.985	2.19
x2 = 0.9515	3.253	2.386

CCOCCOCC + COCCOCCOCCO
viscosity [mPa·s]
Details	298.15 K	308.15 K
x2 = 0.0126	0.622	0.539
x2 = 0.0328	0.652	0.561
x2 = 0.052	0.688	0.586
x2 = 0.0807	0.73	0.617
x2 = 0.1339	0.824	0.691
x2 = 0.1806	0.917	0.765
x2 = 0.2394	1.047	0.872
x2 = 0.2918	1.18	0.978
x2 = 0.342	1.332	1.097
x2 = 0.385	1.473	1.198
x2 = 0.4103	1.588	1.262
x2 = 0.4604	1.801	1.417
x2 = 0.5091	2.04	1.573
x2 = 0.5505	2.273	1.725
x2 = 0.5978	2.561	1.923
x2 = 0.6522	2.935	2.167
x2 = 0.7117	3.396	2.476
x2 = 0.7976	4.169	2.989
x2 = 0.8577	4.791	3.415
x2 = 0.9256	5.588	3.957
x2 = 0.9633	6.103	4.311

ClC(Cl)Cl + CS(C)=O
viscosity [mPa·s]
Details	x2 = 0.0955	x2 = 0.2039	x2 = 0.3021	x2 = 0.4068	x2 = 0.5023	x2 = 0.6044	x2 = 0.7038	x2 = 0.8047	x2 = 0.9014
298.15 K	0.642	0.839	1.018	1.227	1.365	1.498	1.611	1.729	1.842
308.15 K	0.576	0.738	0.882	1.057	1.171	1.276	1.366	1.458	1.545
318.15 K	0.527	0.682	0.8	0.915	1.011	1.097	1.171	1.246	1.309
